Measured values taken from patent US20210292265A1, “CHALCONES AND DERIVATIVES FOR USE IN MEDICAMENTS AND NUTRACEUTICALS” (HLXTH B.V., priority 2018, published 2021).
Values belong to the molecule of their own block, whether it stands above or below them.

Tests used:
[1] = system: inflammasome induced caspase-1 production; assay: Caspase-1 levels by Western blot in LPS/ATP stimulated, PMA differentiated THP-1 cells; type: cell-based
Method: (§1) Evaluation of the effect of test compounds on inflammasome induced IL-1β or IL-18 generation and mTOR or caspase-1 activity was performed using PMA-differentiated THP-1 cells stimulated with LPS (2 ng/ml, 4h (LPS (sigma, cat #L3012)) plus ATP (5 mM, 5 min. (Sigma, cat #A1852)). PMA-differentiated THP-1 cells untreated with LPS/ATP were used as control. PMA (phorbol 12-myristate 13-acetate) stimulation was done by adding 150 nM PMA to the cell culture for 24 hours. followed by 24 hours of incubation in culture medium and removal of non-adherent cells.
(§2) The cell lysates were collected accordingly the manufacturer's instructions for analysis of phospho p70 S6K (Thr389) (eBioscience, cat #85-86052) levels by ELISA, to determine the mTOR activity or to determine caspase-1 (R&D Systems cat #AF6215) levels by Western blot. As secondary antibody for the Western blot a HRP-conjugated anti-IG antibody (R&D Systems cat #HAF017) was used and immunoreactive bands were visualized by the Enhanced Chemiluminescence method (Thermo Scientific, Rockford, Ill.). All assays were performed accordingly to the respective manufacturers instructions.
1. Pre-treatment for 1 hour with experimental compounds. 2. […]
LPS/ATP stimulated, PMA differentiated THP-1 cells were incubated with a compound of formula I and caspase-I formation was analyzed and compared to a control without the compound.

[2] = system: inflammasome induced IL-1β production; assay: IL-1β secretion (ELISA) in LPS/ATP stimulated, PMA differentiated THP-1 cells; type: cell-based; conditions: for IC50: Homo sapiens, LPS (2 ng/ml, 4h) plus ATP (5 mM, 5 min), 1 hour pre-treatment, read-out: IC50 of inhibition of IL-1β secretion
Method: as §1
(§3) The supernatant was collected immediately after experimental procedures for measurement of IL-1β ELISA (R&D Systems, cat #DY201) or IL-18 ELISA (R&D Systems, cat #7620) levels.
(§4) PMA-differentiated THP-1 cells, 1.5×10^5 cells/well, 96-well format
(§5) 1. Pre-treatment for 1 hour with experimental compounds. 2. LPS stimulation (2 ng/mL) for 4h of all conditions except unstimulated (LPS/ATP unstimulated) cells 3. ATP (5 mM) stimulation for 5 minutes of all conditions except unstimulated (LPS/ATP unstimulated) cells 4. Material collection: Supernatant and cell lysates (snap frozen, stored at −80° C.)

[3] = system: inflammasome induced IL-18 production; assay: IL-18 secretion (ELISA) in LPS/ATP stimulated, PMA differentiated THP-1 cells; type: cell-based; conditions: dose dependent
Method: as §1, §3, §4, §5

[4] = target: T1, mTOR (Homo sapiens, UniProt P42345); assay: mTOR activity by phospho p70 S6K (Thr389) ELISA in PMA differentiated THP-1 cells; type: cell-based; conditions: LPS/ATP stimulated and PMA differentiated THP-1 cells; read-out: IC50 of mTOR inhibition (phospho p70 S6K)
T1 construct: PMA-differentiated THP-1 cells, 1.5×10^5 cells/well, 96-well format; endogenous in cells; host or cells: PMA-differentiated THP-1 cells
Method: as §1, §2, §4
1. Pre-treatment for 1 hour with experimental compounds. 2. LPS stimulation (2 ng/mL) for 4h of all conditions except unstimulated (LPS/ATP unstimulated) cells 3. […]

[5] = system: myocardial ischemia reperfusion injury (MI/RI) rats; conditions: I/R rats, 2.5, 5 and 10 mg/kg, 30 min occlusion, 2 h reperfusion; cited from earlier work
[6] = system: MCAO rats; conditions: pretreatment once a day for 7 days, 2 h MCAO, 22 h reperfusion; cited from earlier work
[7] = system: 1K/DOCA/salt-treated mice; conditions: cited from earlier work

Structure (SMILES): Oc1ccc(/C=C/c2cc(O)cc(O)c2)cc1 [Resveratrol, resveratrol]
- infarct volume and myocardial fibrosis [5]: significantly reduced
- IC50 [2]: 87.3 µM

Structure (SMILES): CO[C@H]1C[C@@H]2CC[C@@H](C)[C@@](O)(O2)C(=O)C(=O)N2CCCC[C@H]2C(=O)O[C@H]([C@H](C)C[C@@H]2CC[C@@H](O)[C@H](OC)C2)CC(=O)[C@H](C)/C=C(\C)[C@@H](O)[C@@H](OC)C(=O)[C@H](C)C[C@H](C)/C=C/C=C/C=C/1C [Rapamycin]
- effect on production of IL-1β ([2]; LPS/ATP stimulated, Rapamycin 25, 50 and 100 nM): no effect

Structure (SMILES): CC(C)(O)c1coc(S(=O)(=O)NC(=O)Nc2c3c(cc4c2CCC4)CCC3)c1 [MCC950]
- effect on hypertension [7]: reversed hypertension

The next lines start with results.

- IC50 [2]: 6.1 µM
- IC50 [4]: 98.8 µM
Structure (SMILES): O=C(/C=C/c1ccccc1O)c1ccc(O)cc1O [2,2′,4′-trihydroxychalcone]
- effect on caspase-1 production [1]: inhibits caspase-1 production
- effect on secretion of IL-18 [3]: inhibits the secretion of IL-18

- IC50 [2]: 11.9 µM
- IC50 [4]: 174 µM
Structure (SMILES): O=C(/C=C/c1ccc(O)cc1)c1ccc(O)cc1O [Isoliquiritigenin]
- cerebral infarct volume and edema [6]: significantly reduced
